Measurements: PMC6956158, “In Vitro and In Vivo Assessment of Metabolic Drug Interaction Potential of Dutasteride with Ketoconazole” (Pharmaceutics, 2019)
Like-named read-outs stand apart in the source and are kept apart here.

Assays:
[1] = Unbound fraction by rapid equilibrium dialysis, RLM; format: in vitro ADME, rat
Protocol: (§1) To investigate the metabolic interaction potential between DUT and KET, the disappearance of DUT (5 μM) in RLM and HLM was determined under the absence and presence of KET at various concentrations ranging from 1 to 5000 nM. A microsomal reaction mixture was prepared as follows (total volume: 0.2 mL): 1 mM NADPH, 10 mM MgCl2, substrate (DUT), and inhibitor (KET), RLM or HLM (1 mg/mL), and 50 mM phosphate buffer. At 0 and 90 min after starting the metabolic reaction, a 50 μL aliquot of microsomal incubation mixture was sampled and immediately transferred into a clean 1.5 mL microcentrifuge tube containing 100 μL cold ACN with an internal standard (celecoxib at 400 ng/mL) to stop the metabolic reaction. After vortex mixing and centrifugation at 15,000× g for 10 min, a 100 μL aliquot of the supernatant was stored at −80 °C. The unbound fractions of DUT in rat plasma, RLM, human plasma, and HLM were measured using a rapid equilibrium dialysis (RED) device (Thermo Fisher Scientific, Inc., Waltham, MA, USA) as described in a previous study. […] The fraction unbound was calculated as the ratio of the drug concentrations in the “buffer” chamber to those in the “sample” chamber. The blood-to-plasma concentration ratio (RB) of DUT was determined as described previously. […] The concentrations of DUT in the plasma sample were determined by the validated HPLC analysis.

[2] = NADPH-dependent metabolism (disappearance) of DUT in rat liver microsomes; format: in vitro ADME; settings: RLM
Protocol: (§2) In vitro metabolism studies in RLM and HLM were conducted as previously reported with slight modifications. To investigate the NADPH-dependent metabolism (via phase I enzymes including CYPs) of DUT in RLM and HLM, the disappearance of DUT at various concentrations ranging from 1 to 100 μM in the presence of NADPH was determined in RLM and HLM. The substrate (DUT) concentration ([S]; μM) versus the initial metabolic rate (V; pmol/min/mg protein) data were interpreted based on the Michaelis–Menten kinetics, and relevant parameters were estimated by nonlinear regression analysis (GraphPad Prism ver. 5.01; GraphPad Software, San Diego, CA, USA) based on the following Michaelis–Menten equation: V = Vmax × [S]/Km + [S] where Vmax and Km are the maximal metabolic rate and Michaelis–Menten constant, respectively. The intrinsic metabolic clearance (CLint) was calculated by dividing Vmax by Km. The unbound Km (Km,u) was calculated as the Km multiplied by the unbound fraction in microsomes (fu,mic). The unbound CLint (CLint,u) was calculated as the CLint divided by the fu,mic.
(§3) To investigate the metabolic interaction potential between DUT and KET, the disappearance of DUT (5 μM) in RLM and HLM was determined under the absence and presence of KET at various concentrations ranging from 1 to 5000 nM. A microsomal reaction mixture was prepared as follows (total volume: 0.2 mL): 1 mM NADPH, 10 mM MgCl2, substrate (DUT), and inhibitor (KET), RLM or HLM (1 mg/mL), and 50 mM phosphate buffer. […] The unbound fractions of DUT in rat plasma, RLM, human plasma, and HLM were measured using a rapid equilibrium dialysis (RED) device (Thermo Fisher Scientific, Inc., Waltham, MA, USA) as described in a previous study. […] The fraction unbound was calculated as the ratio of the drug concentrations in the “buffer” chamber to those in the “sample” chamber. The blood-to-plasma concentration ratio (RB) of DUT was determined as described previously. […] The concentrations of DUT in the plasma sample were determined by the validated HPLC analysis.

[3] = In vivo pharmacokinetic study in rats, oral DUT without or with KET; parameters: species or system rat; settings: for AUC(0-t) / Cmax: po, 5 mg/kg
From the text: The animal experiment protocols used in the present study were approved by the Pusan National University-Institutional Animal Care and Use Committee for scientific care and ethical procedures (Busan, Korea; approval date: 01/05/2018; approval number: PNU-2018-1848). Male Sprague–Dawley rats (8-week-old; approximately 250 g) were purchased from DBL Co., Ltd. (Incheon, Korea). The rats were acclimatized in a clean room of the Laboratory Animal Center of Pusan National University (Busan, Korea) for 1 week. Then, they were fasted for 12 h prior to the pharmacokinetic experiment and then anesthetized by intramuscular injection of Zoletil at a dose of 20 mg/kg. The femoral vein and artery of the rats were cannulated with a polyethylene tube (BD Medical; Franklin Lakes, NJ, USA). At approximately 4–6 h after the surgery for cannulation, an intravenous dose of DUT (2.5 mg/kg) simultaneously with or without intravenous KET ([…]) was administered to the rats. Drugs were dissolved in a vehicle consisting of dimethyl sulfoxide, ethanol, and polyethylene glycol 400 at a ratio of 10:5:85 (v/v/v). Blood (approximately 200 μL) was collected in heparin pre-treated microcentrifuge tubes via the femoral artery at 0, 1, 5, 15, 30, 60, 120, 180, 240, 360, 480, and 1200 min after the intravenous dose and at 0, 5, 15, 30, 60, 120, 150, 180, 240, 360, 480, and 1200 min after the oral dose. Following centrifugation of the blood samples at 3000× g at 4 °C for 10 min [19], 100 μL aliquots of plasma were stored at −80 °C.
The half maximal inhibitory concentration (IC50) of KET for the inhibition of the DUT metabolism was determined by the nonlinear regression analysis (GraphPad Prism ver. 5.01; GraphPad Software Inc., San Diego, CA, USA) based on the following Hill equation: y = Min + Max−Min/1 + (x/IC50)^-P where Max and Min are the initial and final y value, respectively, and the exponent P represents the Hill coefficient. Peak plasma concentration (Cmax) and time to reach Cmax (Tmax) were read directly from the observed data. Non-compartmental analysis was conducted to estimate pharmacokinetic parameters such as total area under plasma concentration versus time curve from time zero to time of last sampling (AUClast), total area under plasma concentration versus time curve from time zero to infinity (AUCinf), total plasma clearance (CL), volume of distribution at steady state (Vss), and terminal half-life (t1/2) using the NCA200 and 201 models of WinNonlin ver. 3.1 (Certara USA Inc., Princeton, NJ, USA).

type-1 5AR = tested on: type-1 5AR; parameters: method as in PMID 16964191, PMID 16719800; settings: previous in vitro studies; cited from earlier work
[4] = cited from earlier work
[5] = Unbound fraction by rapid equilibrium dialysis, rat plasma; format: in vitro ADME
Protocol: as §1

[6] = NADPH-dependent metabolism (disappearance) of DUT in human liver microsomes; format: in vitro ADME; settings: HLM
Protocol: as §2, §3

[7] = male, Sprague-Dawley, rat, plasma, oral DUT 5 mg/kg with oral KET (20 mg/kg), n = 4
[8] = male, Sprague-Dawley, rat, plasma, oral DUT 5 mg/kg, DUT alone, n = 4

C[C@]12C=CC(=O)N[C@@H]1CC[C@@H]1[C@@H]2CC[C@]2(C)[C@@H](C(=O)Nc3cc(C(F)(F)F)ccc3C(F)(F)F)CC[C@@H]12 [DUT, Dutasteride]
fraction of unbound DUT, presence versus absence of KET ([1]; RLM, DUT and KET 5 μM, n = 5): no significant differences | fraction unbound at 5 μM ([1]; Sprague-Dawley, rat, rat liver microsomes, RLM 1 mg/mL, DUT 5 μM, RED device): 0.0856 | Vmax ([2]; DUT 1 to 100 μM, NADPH): 114 ± 10 pmol/min/mg protein | microsomal CLint ([2]; Sprague-Dawley, rat, rat liver microsomes, Vmax divided by Km): 3.45 ± 0.37 µL/min/mg | Km ([2]; rat, rat liver microsomes, DUT 1 to 100 μM, NADPH): 33.3 ± 3.6 µM | concentration at 30 min ([3]; male, Sprague-Dawley, rat, plasma sample collected at 30 min after oral DUT 5 mg/kg, representative chromatogram): 276 ng/mL | Tmax ([3]; male, Sprague-Dawley, rat, plasma, oral DUT 5 mg/kg, DUT alone, median (range), n = 4, read-out: Tmax (converted)): 1 h | AUC(0-t) [3, 7]: 6470 ng·h/mL | Cmax [3, 7]: 419 ± 27 ng/mL | AUC(0-t) [3, 8]: 4580 ng·h/mL | Cmax [3, 8]: 289 ± 10 ng/mL | Tmax ([3]; oral DUT 5 mg/kg with oral KET (20 mg/kg), median, n = 4): 1 h | more potent inhibition of type-1 5AR compared to finasteride (type-1 5AR): 45 fold | steady-state serum DUT concentration, median ([4]; healthy humans, 0.5 mg DUT once-daily for more than 6 months): 38 ng/mL | terminal half-life ([4]; humans, after reaching a steady state): approximately 5 weeks | unchanged DUT excreted in the urine ([4]; humans): trace amounts | fraction of unbound DUT, presence versus absence of KET ([5]; DUT and KET 5 μM, n = 5): no significant differences | fraction unbound at 5 μM ([5]; Sprague-Dawley, DUT 5 μM, RED device): 0.0115 | Vmax ([6]; DUT 1 to 100 μM, NADPH): 47.7 ± 6.3 pmol/min/mg protein | Km ([6]; human, human liver microsomes, DUT 1 to 100 μM, NADPH): 51.6 ± 7.3 µM | microsomal CLint ([6]; human, human liver microsomes, Vmax divided by Km): 0.928 ± 0.069 µL/min/mg
